Measured values published in ChEMBL document CHEMBL1201862, “PubChem BioAssay data set” (2004).
The source made the active and inactive calls.

Key:
Hexokinase-1 = biological target: T1, Hexokinase-1 (Homo sapiens, UniProt P19367); experiment: hexokinase 1 activity inhibitors, potency – biochemical, set 2, resazurin fluorescence coupled readout, selectivity assay for HKDC1 inhibitor project, SAR follow-up (AID 588356); format: functional
T1 sequence (P19367 whole entry): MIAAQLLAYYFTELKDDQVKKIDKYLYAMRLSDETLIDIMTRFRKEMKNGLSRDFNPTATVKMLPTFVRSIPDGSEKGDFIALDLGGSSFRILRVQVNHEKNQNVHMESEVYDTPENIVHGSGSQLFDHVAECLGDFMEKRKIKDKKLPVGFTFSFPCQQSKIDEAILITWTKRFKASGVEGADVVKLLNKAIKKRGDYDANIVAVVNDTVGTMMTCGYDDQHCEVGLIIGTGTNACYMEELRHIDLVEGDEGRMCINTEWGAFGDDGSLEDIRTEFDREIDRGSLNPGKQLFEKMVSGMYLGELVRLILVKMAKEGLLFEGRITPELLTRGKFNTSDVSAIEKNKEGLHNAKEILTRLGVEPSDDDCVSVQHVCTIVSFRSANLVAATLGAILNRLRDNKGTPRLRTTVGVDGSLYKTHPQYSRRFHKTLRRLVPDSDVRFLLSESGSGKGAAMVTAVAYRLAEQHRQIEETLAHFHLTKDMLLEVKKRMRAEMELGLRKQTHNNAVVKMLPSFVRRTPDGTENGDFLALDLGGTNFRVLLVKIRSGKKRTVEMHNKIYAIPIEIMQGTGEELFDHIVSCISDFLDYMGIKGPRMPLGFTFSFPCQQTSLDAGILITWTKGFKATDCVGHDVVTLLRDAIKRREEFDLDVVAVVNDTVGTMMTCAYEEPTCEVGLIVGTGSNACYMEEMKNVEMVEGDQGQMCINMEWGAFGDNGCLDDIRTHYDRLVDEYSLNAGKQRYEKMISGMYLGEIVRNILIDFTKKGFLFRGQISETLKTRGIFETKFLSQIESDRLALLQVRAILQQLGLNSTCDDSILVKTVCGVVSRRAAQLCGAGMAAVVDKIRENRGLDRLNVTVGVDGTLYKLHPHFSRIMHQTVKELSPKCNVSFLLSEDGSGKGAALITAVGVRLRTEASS

Large T antigen = Large T antigen (Simian virus 40, UniProt P03070); format: functional, Betapolyomavirus macacae;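 also: Confirmatory-stage PubChem screen for compounds that inhibit SV40 T antigen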
[1] = biological target: T2, Sentrin-specific protease 8 (Homo sapiens, UniProt Q96LD8); format: functional
T2 sequence (Q96LD8 whole entry): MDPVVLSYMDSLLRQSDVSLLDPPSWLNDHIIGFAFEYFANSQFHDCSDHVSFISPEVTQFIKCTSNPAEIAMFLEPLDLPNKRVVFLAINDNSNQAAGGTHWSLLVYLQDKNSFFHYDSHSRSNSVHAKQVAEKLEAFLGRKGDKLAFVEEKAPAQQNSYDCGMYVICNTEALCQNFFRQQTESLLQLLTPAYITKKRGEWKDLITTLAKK

Nonstructural protein 1 = Nonstructural protein 1 (Influenza A virus, UniProt Q194T2); format: functional, Influenza A virus (A/California/07/2009(H1N1))
[2] = biological target: Proto-oncogene tyrosine-protein kinase ROS (Homo sapiens, UniProt P08922); format: functional;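 also: ROS1 tested as one member of a kinome-wide kinase panel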
[3] = biological target: Dual specificity tyrosine-phosphorylation-regulated kinase 3 (Homo sapiens, UniProt O43781); format: functional;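 also: measured as one member of a broad kinase panel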
[4] = biological target: Serine/threonine-protein kinase pim-3 (Homo sapiens, UniProt Q86V86); format: functional;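 also: value obtained as one member of a broad kinase panel profiling effort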
[5] = biological target: Tyrosine-protein kinase Fer (Homo sapiens, UniProt P16591); format: functional;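 also: FER tested as one member of a kinome panel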
[6] = biological target: Receptor-type tyrosine-protein kinase FLT3 (Homo sapiens, UniProt P36888); format: functional;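 also: FLT3 was tested as one member of a kinome-wide kinase panel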
[7] = biological target: Tyrosine-protein kinase ABL1 (Homo sapiens, UniProt P00519); format: functional
[8] = biological target: Glycogen synthase kinase-3 beta (Homo sapiens, UniProt P49841); format: functional;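 also: value comes from a broad kinome profiling panel, with GSK3B as the panel member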
[9] = biological target: Tyrosine-protein kinase ITK/TSK (Homo sapiens, UniProt Q08881); format: functional;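 also: affinity for ITK measured as one member of a broad kinase panel profiling binding across the kinome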
[10] = biological target: MAP kinase-interacting serine/threonine-protein kinase 2 (Homo sapiens, UniProt Q9HBH9); format: functional
[11] = biological target: Testis-specific serine/threonine-protein kinase 2 (Homo sapiens, UniProt Q96PF2); format: functional;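 also: part of the Navigating the Kinome panel, target entry STK22B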
[12] = biological target: Serine/threonine-protein kinase pim-1 (Homo sapiens, UniProt P11309); format: functional
[13] = biological target: Death-associated protein kinase 3 (Homo sapiens, UniProt O43293); format: functional;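 also: measured as one member of a kinome-wide profiling panel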
[14] = biological target: Serine/threonine-protein kinase pim-2 (Homo sapiens, UniProt Q9P1W9); format: functional;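 also: value comes from a broad kinase panel profiling study in which PIM2 was one of the panel members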
[15] = biological target: Tyrosine-protein kinase Srms (Homo sapiens, UniProt Q9H3Y6); format: functional;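 also: SRMS measured as one member of a kinome-wide kinase profiling panel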
[16] = biological target: Megakaryocyte-associated tyrosine-protein kinase (Homo sapiens, UniProt P42679); format: functional;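 also: affinity measured as one member of a kinase panel (Navigating the Kinome) against MATK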
[17] = biological target: Casein kinase I isoform alpha (Homo sapiens, UniProt P48729); format: functional
[18] = biological target: Maternal embryonic leucine zipper kinase (Homo sapiens, UniProt Q14680); format: functional
Maternal embryonic leucine zipper kinase, sequence (Q14680 whole entry): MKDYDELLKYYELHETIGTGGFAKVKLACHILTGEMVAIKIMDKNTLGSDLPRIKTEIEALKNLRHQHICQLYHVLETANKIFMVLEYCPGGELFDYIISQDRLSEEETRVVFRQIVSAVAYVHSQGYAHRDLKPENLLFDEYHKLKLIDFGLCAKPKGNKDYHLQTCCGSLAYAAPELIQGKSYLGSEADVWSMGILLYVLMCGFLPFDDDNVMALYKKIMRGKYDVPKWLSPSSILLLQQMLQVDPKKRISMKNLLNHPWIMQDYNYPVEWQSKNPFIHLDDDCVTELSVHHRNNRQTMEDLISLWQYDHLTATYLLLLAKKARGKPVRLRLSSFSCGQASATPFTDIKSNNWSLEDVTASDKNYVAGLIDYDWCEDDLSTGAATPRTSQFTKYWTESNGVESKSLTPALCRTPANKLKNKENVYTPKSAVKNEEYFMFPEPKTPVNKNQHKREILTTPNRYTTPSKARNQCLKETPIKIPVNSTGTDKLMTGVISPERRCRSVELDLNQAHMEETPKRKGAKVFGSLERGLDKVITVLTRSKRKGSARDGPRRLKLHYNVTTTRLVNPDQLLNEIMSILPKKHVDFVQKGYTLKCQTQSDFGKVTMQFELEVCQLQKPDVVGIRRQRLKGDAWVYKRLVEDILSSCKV

Serine/threonine-protein kinase pim-1, sequence (P11309 whole entry): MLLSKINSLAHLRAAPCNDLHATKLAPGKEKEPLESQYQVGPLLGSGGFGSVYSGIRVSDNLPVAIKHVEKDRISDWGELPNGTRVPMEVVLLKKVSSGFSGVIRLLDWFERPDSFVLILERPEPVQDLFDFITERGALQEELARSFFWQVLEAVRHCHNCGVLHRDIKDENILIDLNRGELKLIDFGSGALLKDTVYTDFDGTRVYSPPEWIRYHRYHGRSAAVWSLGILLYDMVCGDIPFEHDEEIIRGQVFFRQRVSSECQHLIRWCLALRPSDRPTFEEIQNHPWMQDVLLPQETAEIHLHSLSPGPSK
Dual specificity tyrosine-phosphorylation-regulated kinase 3, sequence (O43781 whole entry): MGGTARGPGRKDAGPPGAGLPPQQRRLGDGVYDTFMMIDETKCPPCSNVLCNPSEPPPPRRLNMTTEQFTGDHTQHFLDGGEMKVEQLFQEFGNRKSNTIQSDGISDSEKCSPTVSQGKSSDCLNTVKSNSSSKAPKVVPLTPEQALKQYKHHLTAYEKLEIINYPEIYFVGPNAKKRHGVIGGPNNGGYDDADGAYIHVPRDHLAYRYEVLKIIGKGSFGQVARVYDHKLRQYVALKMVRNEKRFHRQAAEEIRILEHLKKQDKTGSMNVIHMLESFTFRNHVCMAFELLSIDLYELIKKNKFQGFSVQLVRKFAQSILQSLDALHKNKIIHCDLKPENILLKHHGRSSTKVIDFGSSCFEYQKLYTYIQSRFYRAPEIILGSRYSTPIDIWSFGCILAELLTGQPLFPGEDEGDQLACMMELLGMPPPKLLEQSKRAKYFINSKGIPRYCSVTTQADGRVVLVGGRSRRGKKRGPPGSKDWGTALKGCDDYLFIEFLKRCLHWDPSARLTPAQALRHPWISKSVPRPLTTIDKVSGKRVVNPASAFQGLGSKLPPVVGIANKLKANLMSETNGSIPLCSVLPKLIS
Megakaryocyte-associated tyrosine-protein kinase, sequence (P42679 whole entry, canonical isoform): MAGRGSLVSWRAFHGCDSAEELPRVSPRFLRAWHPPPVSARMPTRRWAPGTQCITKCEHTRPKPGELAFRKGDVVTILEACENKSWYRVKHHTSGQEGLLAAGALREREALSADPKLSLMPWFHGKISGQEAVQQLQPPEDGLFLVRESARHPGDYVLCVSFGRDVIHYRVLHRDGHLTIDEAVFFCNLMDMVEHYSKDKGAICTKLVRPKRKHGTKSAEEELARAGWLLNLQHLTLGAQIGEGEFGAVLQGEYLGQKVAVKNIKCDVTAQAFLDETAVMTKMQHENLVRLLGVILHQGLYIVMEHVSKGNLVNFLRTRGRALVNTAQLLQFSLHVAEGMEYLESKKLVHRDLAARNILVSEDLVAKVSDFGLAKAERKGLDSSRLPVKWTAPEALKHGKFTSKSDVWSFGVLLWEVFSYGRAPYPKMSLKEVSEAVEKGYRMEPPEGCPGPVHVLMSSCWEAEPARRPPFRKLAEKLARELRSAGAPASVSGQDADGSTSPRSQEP
Glycogen synthase kinase-3 beta, sequence (P49841 whole entry): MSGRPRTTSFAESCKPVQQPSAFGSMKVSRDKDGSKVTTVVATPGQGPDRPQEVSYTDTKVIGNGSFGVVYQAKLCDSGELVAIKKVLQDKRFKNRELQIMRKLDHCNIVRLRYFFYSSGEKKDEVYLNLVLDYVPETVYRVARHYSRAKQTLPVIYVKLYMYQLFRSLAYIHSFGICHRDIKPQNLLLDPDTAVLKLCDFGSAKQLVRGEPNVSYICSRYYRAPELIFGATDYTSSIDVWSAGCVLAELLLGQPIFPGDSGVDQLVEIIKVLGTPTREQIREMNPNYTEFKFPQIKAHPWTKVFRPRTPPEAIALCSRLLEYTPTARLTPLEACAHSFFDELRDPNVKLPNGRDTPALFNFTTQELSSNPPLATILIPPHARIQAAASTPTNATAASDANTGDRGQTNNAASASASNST
MAP kinase-interacting serine/threonine-protein kinase 2, sequence (Q9HBH9 whole entry): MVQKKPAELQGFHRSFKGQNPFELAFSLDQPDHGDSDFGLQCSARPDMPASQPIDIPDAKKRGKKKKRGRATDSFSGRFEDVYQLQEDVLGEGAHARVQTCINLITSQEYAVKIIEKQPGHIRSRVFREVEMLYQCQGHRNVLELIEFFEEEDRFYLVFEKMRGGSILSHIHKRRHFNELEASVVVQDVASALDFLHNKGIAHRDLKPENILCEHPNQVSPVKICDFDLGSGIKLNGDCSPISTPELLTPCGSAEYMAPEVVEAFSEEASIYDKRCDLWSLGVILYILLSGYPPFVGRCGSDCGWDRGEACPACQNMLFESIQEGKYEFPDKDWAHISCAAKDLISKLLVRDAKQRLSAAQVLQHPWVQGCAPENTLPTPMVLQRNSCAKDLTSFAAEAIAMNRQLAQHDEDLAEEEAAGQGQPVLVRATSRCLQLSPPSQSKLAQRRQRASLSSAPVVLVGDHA
Nonstructural protein 1, sequence (Q194T2 whole entry): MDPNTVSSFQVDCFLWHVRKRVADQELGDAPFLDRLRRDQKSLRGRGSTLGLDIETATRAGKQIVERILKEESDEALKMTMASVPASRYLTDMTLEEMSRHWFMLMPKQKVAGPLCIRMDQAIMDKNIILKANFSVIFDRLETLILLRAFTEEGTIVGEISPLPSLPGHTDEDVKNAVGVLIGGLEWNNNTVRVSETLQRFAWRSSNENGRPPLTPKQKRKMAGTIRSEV
Serine/threonine-protein kinase pim-2, sequence (Q9P1W9 whole entry): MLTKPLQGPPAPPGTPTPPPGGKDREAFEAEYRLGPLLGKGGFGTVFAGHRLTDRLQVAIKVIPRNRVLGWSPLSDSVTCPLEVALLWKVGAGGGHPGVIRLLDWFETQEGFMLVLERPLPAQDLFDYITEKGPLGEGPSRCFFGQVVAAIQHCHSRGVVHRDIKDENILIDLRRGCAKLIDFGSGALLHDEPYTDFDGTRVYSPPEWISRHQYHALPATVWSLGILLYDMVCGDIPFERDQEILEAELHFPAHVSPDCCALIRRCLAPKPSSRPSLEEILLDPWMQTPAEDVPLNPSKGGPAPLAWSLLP
Testis-specific serine/threonine-protein kinase 2, sequence (Q96PF2 whole entry): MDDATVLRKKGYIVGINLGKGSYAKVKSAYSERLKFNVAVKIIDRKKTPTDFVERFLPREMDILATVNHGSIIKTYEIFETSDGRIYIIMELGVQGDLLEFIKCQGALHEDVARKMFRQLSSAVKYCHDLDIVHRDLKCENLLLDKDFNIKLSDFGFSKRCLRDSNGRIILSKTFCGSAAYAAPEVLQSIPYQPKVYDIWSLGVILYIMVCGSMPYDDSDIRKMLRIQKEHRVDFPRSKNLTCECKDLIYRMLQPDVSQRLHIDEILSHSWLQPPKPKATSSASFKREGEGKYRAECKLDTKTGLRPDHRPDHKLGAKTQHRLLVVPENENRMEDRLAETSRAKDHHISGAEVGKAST
Tyrosine-protein kinase Srms, sequence (Q9H3Y6 whole entry): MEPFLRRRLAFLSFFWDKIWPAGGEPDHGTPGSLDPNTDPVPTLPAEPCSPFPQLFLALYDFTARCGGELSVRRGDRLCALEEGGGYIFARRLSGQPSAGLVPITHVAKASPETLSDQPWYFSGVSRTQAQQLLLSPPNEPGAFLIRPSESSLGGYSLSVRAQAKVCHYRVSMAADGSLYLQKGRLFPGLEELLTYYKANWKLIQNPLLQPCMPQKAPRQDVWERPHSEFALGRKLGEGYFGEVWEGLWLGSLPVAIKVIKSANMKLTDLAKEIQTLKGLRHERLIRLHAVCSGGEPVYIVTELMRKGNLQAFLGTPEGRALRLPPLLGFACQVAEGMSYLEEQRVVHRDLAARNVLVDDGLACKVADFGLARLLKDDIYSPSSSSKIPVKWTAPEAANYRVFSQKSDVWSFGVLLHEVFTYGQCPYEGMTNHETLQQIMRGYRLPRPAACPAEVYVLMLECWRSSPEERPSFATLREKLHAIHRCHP

How did the IC50 (Hexokinase-1) turn out when `CC(=O)NC1C(=O)N(CCN2CCOCC2)c2ccc(F)cc21` (stereo unspecified) was run?
The IC50 was > 80000 nM (inactive).

With `O=C(O)C1Nc2c(O)cc(Cl)c([N+](=O)[O-])c2C2C=CCC12` (stereo unspecified) as the compound, how does the IC50 (Large T antigen) read?
The IC50 was 9860 nM (active).

Which IC50 [1] does the source give for `O=C(CCc1ccccc1)NNc1cc(N2CCCCC2)nc(N2CCCCC2)n1` here?
The IC50 was 605 nM (active).

With `Oc1ccc(N=Nc2c(O)ccc3ccccc23)cc1` as the compound, how does the IC50 (Nonstructural protein 1) read?
The IC50 was 17500 nM (active).

`Cc1n[nH]c2ccc(-c3cncc(OCC(N)Cc4cccc(Cl)c4)c3)cc12` (stereo unspecified) was tested. Which Ki [2] did it give?
Its Ki is 631 nM (active).

What about the Ki [3] of the same compound?
Its Ki is 5.01 nM (active).

What about the Ki [4] of the same compound?
Its Ki is 10 nM (active).

What about the Ki [5] of the same compound?
The Ki was > 1580 nM (inactive).

What about the Ki [6] of the same compound?
Its Ki is 158 nM (active).

And the Ki [7]?
Its Ki is > 631 nM (inactive).

And the Ki [8]?
Its Ki is 15.8 nM (active).

What about the Ki [9] of the same compound?
The Ki was > 1580 nM (inactive).

And the Ki [10]?
Its Ki is 316 nM (active).

And the Ki [11]?
Its Ki is 1580 nM (active).

What about the Ki [12] of the same compound?
The Ki was 5.01 nM (active).

What about the Ki [13] of the same compound?
The Ki was 79.4 nM (active).

And the Ki [14]?
The Ki was 10 nM (active).

What about the Ki [15] of the same compound?
Its Ki is > 1580 nM (inactive).

What about the Ki [16] of the same compound?
Its Ki is > 2000 nM (inactive).

What about the Ki [17] of the same compound?
Its Ki is 126 nM (active).

And the Ki [18]?
The Ki was 79.4 nM (active).
